Source: US20060167229A1, “Biologically active peptide conjugates” (priority 2002, published 2006)
Several values for one entry are separate records, joined by “and”; a condition that tells them apart may be missing. Equal entries are not always repeated. Marks after values point to notes of the source that are not given here. Ends that are not written are not given here.

Key:
spleen = test: Immunity organ weight test, spleen index; assay type: in vivo, BALB/c mice; details: for weight of spleen (spleen index), X ± SD (%): healthy mice, saline 0.53 ± 0.05; for effect on the weight of the spleen (summary): statistically significant difference from saline in any of the dosage groups 0.5-500 μg/kg/day
Experimental: One day after the last test substance administration (day 16), the liver, spleen, and thymus gland were separated and blotted dry with filter paper and weighed. The phagocytosis index α was calculated as below: α=(^3√{square root over ( )}K)(W÷WLS)
Spleen index (%)=(spleen weight/body weight)×100%

interferon (IFN) = tested on: interferon (IFN); set-up: species or system BALB/c mice; details: mouse, in vivo; for activity of T lymphocyte in secreting IFN, X ± SD (IU): ip
mononuclear phagocyte = test: Phagocytotic function of mononuclear phagocyte in mice with transplanted S180 sarcoma; assay type: in vivo, BALB/c mice; details: saline 5.38 ± 0.85
Experimental: (§1) Intraperitoneal injection, once per day. […] Treatment of all groups with testing substance lasted for 30 days or until the animal died unless otherwise specified.
Stock S180 sarcoma cells were incubated in DMEM/F12 medium supplemented with 10% fetal bovine serum, 37° C., 5% CO2 for 72 hrs, then washed 3-4 times with Hank's solution at room temperature. Adjust the cell concentration to 1-2×10^9 per litre with Hank's solution. […] The mice were killed by cervical vertebra dislocation. Vigorously growing and non-disrupted tumor masses were harvested and washed clean with sterile saline. The tissue was dispersed in saline to a homogenous cell suspension, in a ratio of 1 g tissue to 4 ml saline. The sarcoma bearing mice model was prepared with an injection of 0.2 ml cell suspension through the armpit. Administration of test substance treatment started as described in section Method 1.
2.1 The effect of peptides on the phagocytotic function of mononuclear phagocyte in mice with S180 sarcoma was analysed by injecting mice from the tail vein with 0.1 ml/10 g body weight of Indian ink (1:5 dilution with normal saline) on the second day after the last test substance administration. At one minute and five minutes after the injection, 20 μl blood was obtained from the eye canthus with heparinised tubing. The blood was mixed with 2 ml 0.1% w/v Na2CO3 and then OD680 nm obtained. The outline clear index K was calculated by the following formula: K=(lgA1−lgA2)÷(t2−t1)
After the phagocytosis index study, the mice were killed by cervical vertebra dislocation. The liver, spleen, and cancer tissue were dissected, blotted dry, and weighed. The phagocytosis index a was calculated as below: α=(^3√{square root over ( )}K)×(W÷WLS)

T lymphocyte = T lymphocyte transformation in mice with ascitic fluid type liver cancer H22; assay type: in vivo, BALB/c mice; details: saline 1.25 ± 0.07
Experimental: Healthy BALB/c mice were randomised into peptide group, rmIFN-γ group, rhIL-2 group, and saline group, 15 mice per group, and prepared into H22 carrying mice model as described in section Method 3. After implantation of the cancer cells, the test substances were administered for 15 days, the mice were killed by cervical dislocation. The spleen was isolated aseptically and manually dispersed in cold D-Hank's solution using an injection needle. The dispersed cell suspension was further sieved through a 100-gauge 150 μm diameter stainless steel sieve. After centrifugation at 200 g for 10 minutes, the supernatant was discarded. The cell pellet was re-suspended in 10 volume of Tris-NH4Cl buffer and then kept standing still for 10 minutes at room temperature. The suspended cells were collected by centrifugation at 150 g for 10 minutes. The cells were washed 2-4 times with cold D-Hank's solution by re-suspending and collecting by centrifugation with condition as described above. The washed cells were then diluted to the desired cell densities by RPMI-1640 culture medium, containing 10% fetal bovine serum.
Spleen cells of density 1×10^6/ml were placed onto a 96 wells cell culture plate, 100 μl/well, three parallel wells each of the assay sample and control sample per mouse. To the assay wells, 100 μl/well ConA of 100 μg/ml in RPMI-1640 was added, and 100 μl/well plain RPMI-1640 was used for the controls. The cells were incubated for 66 hrs at 37° C., 5% CO2. The cells were then pelleted by centrifugation at 150 g for 10 minutes.
50 μl/well MTT of 1 mg/ml in RPMI-1640 was added to the cell pellet and the cells re-suspended by shaking for 2 minutes. The incubation was continued for 4 hours. The supernatant was discarded after centrifugation at 150 g for 10 minutes. 120 μl 40 mM HCl-2-propanol was added to the cell pellet and shaken for 3 minutes. Use an ELISA reader to obtain OD570 nm of each well referenced at 630 nm.
Each mouse formed three assay wells and three control wells. The Stimulation Index (SI) of each mouse was obtained by first deriving the average OD of the three parallel wells, then dividing the value of the assay wells by the control wells.

L1210 leukemia = test: Survival of mice with transplanted L1210 leukemia; assay type: in vivo, DBA/2 mice; details: for Survival days: saline 16.6 ± 5.6
Experimental: as §1
Stock L1210 cells were incubated in DMEM/F12 medium supplemented with 10% fetal bovine serum, 37° C./5% CO2 for 72 hrs, then washed 3-4 times with Hank's solution, and adjusted to […]. 0.1 ml of the cell suspension was implanted into the abdominal cavity of several healthy DBA mice for 6-8 days. The mice were then killed by cervical vertebra dislocation and their ascitic fluid collected aseptically. The cell concentration of the collected ascitic fluid was adjusted to 1×10^5 per ml with Hank's solution. 0.1 ml of the cell suspension was implanted into each of the testing animal and the survival data of the animals recorded. Treatment started in the testing animals as described in section Method 1. Mean survival day was obtained by the Kaplan-meier method in the Survival option of the SPSS software. If the animal survived longer than the experiment, the survival days was entered as the duration of the experiment. The survival index was calculated according to the following formula: Survival index=(mean survival days of treatment group−mean survival days of control group)÷mean survival days of control group 6. The Effect of Peptides on the Humoral Immunity of C57BL/6 Mice Bearing Transplanted B16 Melanoma and that on the Metastatic Potential of the Inoculated Melanoma Cells

[1] = peptide 500 μg/kg/day i.p. 15 days
[2] = Table 28, peptide 5 μg/kg/day (so in the source) i.p. 15 days (IFN-γ, IL-2 3×10^5 IU/kg/day)
[3] = peptide 0.5 μg/kg/day i.p. 15 days (IFN-γ, IL-2 3×10^5 IU/kg/day)
[4] = dose 0.5 μg/kg i.p. once per day
[5] = controls: IL-2, IFN-γ 3 × 10^5 IU/kg, cyclophosphamide 20 mg/kg

FNFVPP [CMS003]
weight of spleen (spleen index), X ± SD (%) (spleen; [1]): 0.40 ± 0.04 % | effect on the weight of the spleen (summary) (spleen): decrease | effect on the secretion of IFN by T lymphocytes (summary) (interferon (IFN)): enhance | activity of T lymphocyte in secreting IFN, X ± SD (IU) (interferon (IFN)): 106 ± 16 IU

IGMESAGIHETTY [CMS016]
effect on the secretion of IFN by T lymphocytes (summary) (interferon (IFN)): enhance | activity of T lymphocyte in secreting IFN, X ± SD (IU) (interferon (IFN)): 162 ± 19*^@^ IU

KAVGHLDDLPGAL [CMS008]
weight of spleen (spleen index), X ± SD (%) (spleen; [2]): 0.39 ± 0.08 % | effect on the weight of the spleen (summary) (spleen): decrease

LGMQACGIHETTY [CMS012]
effect on the secretion of IFN by T lymphocytes (summary) (interferon (IFN)): enhance | activity of T lymphocyte in secreting IFN, X ± SD (IU) (interferon (IFN)): 86 ± 9 IU

LRVAPQQHPTL [CMS009]
weight of spleen (spleen index), X ± SD (%) (spleen; [1]): 0.41 ± 0.03 % | effect on the weight of the spleen (summary) (spleen): decrease | effect on the secretion of IFN by T lymphocytes (summary) (interferon (IFN)): enhance | activity of T lymphocyte in secreting IFN, X ± SD (IU) (interferon (IFN)): 121 ± 15*^ IU

PTTKTYFPHF [CMS001]
Phagocytosis index (mononuclear phagocyte; dose 5 μg/kg i.p. once per day): 6.67 ± 0.43*^ | Phagocytosis index (mononuclear phagocyte; dose 50 μg/kg i.p. once per day): 6.24 ± 0.33*^ | weight of spleen (spleen index), X ± SD (%) (spleen; [3]): 0.40 ± 0.05 % | weight of spleen (spleen index), X ± SD (%) (spleen; [1]): 0.43 ± 0.07 % | effect on the weight of the spleen (summary) (spleen): decrease | effect on the secretion of IFN by T lymphocytes (summary) (interferon (IFN)): enhance | activity of T lymphocyte in secreting IFN, X ± SD (IU) (interferon (IFN)): 110 ± 15 IU

Phe Val Asn Asp (FVND; listed as Sus scrofa) [CMS035]
Stimulation index (T lymphocyte; dose 0.5 μg/kg): 1.40 ± 0.13*^$ | Stimulation index (T lymphocyte; dose 5 μg/kg): 1.46 ± 0.16*^$ | Survival index (%) (L1210 leukemia; [4]): 76.1% | Survival days (L1210 leukemia; [4]): 29.3 ± 15.4 days

Pro Gln Asn Phe (PQNF; printed: Pro Gln Asn Phe) [CMS034]
Stimulation index (T lymphocyte; dose 0.5 μg/kg): 1.37 ± 0.10*^$ | Phagocytosis index (mononuclear phagocyte; [4]): 6.35 ± 1.02 | Phagocytosis index (mononuclear phagocyte; dose 5 μg/kg i.p. once per day): 6.20 ± 0.44*^

Pro Ser Ile Vat Gly Arg Pro Arg His Gln Gly Val Met (PSIVGRPRHQGVM; listed as Sus scrofa) [CMS015]
weight of spleen (spleen index), X ± SD (%) (spleen; Table 30, peptide 5 μg/kg/day i.p. 15 days): 0.38 ± 0.15 % | weight of spleen (spleen index), X ± SD (%) (spleen; [1]): 0.36 ± 0.07 % | effect on the weight of the spleen (summary) (spleen): decrease

RVAPQQHPTL [CMS011]
weight of spleen (spleen index), X ± SD (%) (spleen; [1]): 0.41 ± 0.04 % | effect on the weight of the spleen (summary) (spleen): decrease | effect on the secretion of IFN by T lymphocytes (summary) (interferon (IFN)): enhance | activity of T lymphocyte in secreting IFN, X ± SD (IU) (interferon (IFN)): 89 ± 18 IU

Tyr Ser Leu (YSL; listed as Sus scrofa) [CMS024]
Stimulation index (T lymphocyte; dose 0.5 μg/kg): 1.46 ± 0.19*^$ | Stimulation index (T lymphocyte; dose 5 μg/kg): 1.45 ± 0.21*^$ | weight of spleen (spleen index), X ± SD (%) (spleen; [1]): 0.34 ± 0.05 % | effect on the weight of the spleen (summary) (spleen): decrease

Tyr Ser Phe (YSF; listed as Sus scrofa) [CMS022]
effect on the secretion of IFN by T lymphocytes (summary) (interferon (IFN)): enhance | activity of T lymphocyte in secreting IFN, X ± SD (IU) (interferon (IFN)): 145 ± 13*^@^ IU

VAPEEHPTLLTEAPLNPK [CMS010]
Stimulation index (T lymphocyte; dose 500 μg/kg): 1.45 ± 0.21*^$ | weight of spleen (spleen index), X ± SD (%) (spleen; [2]): 0.38 ± 0.05 % | effect on the weight of the spleen (summary) (spleen): decrease | effect on the secretion of IFN by T lymphocytes (summary) (interferon (IFN)): enhance | activity of T lymphocyte in secreting IFN, X ± SD (IU) (interferon (IFN)): 167 ± 13*^@^ IU and 142 ± 18*^@^ IU

VGMGQKDSY
Stimulation index (T lymphocyte; dose 0.5 μg/kg): 1.50 ± 0.19*^$ | weight of spleen (spleen index), X ± SD (%) (spleen; [1]): 0.63 ± 0.08 % | effect on the weight of the spleen (summary) (spleen): increase | Survival index (%) (L1210 leukemia; [4]): 26.8% | Survival days (L1210 leukemia; [4]): 21.1 ± 5.8 days

VGMGQKDSYV [CMS020]
weight of spleen (spleen index), X ± SD (%) (spleen; [3]): 0.68 ± 0.09*^@^ % | effect on the weight of the spleen (summary) (spleen): increase

B1: IFN-γ: recombinant mouse IFN-γ (rmIFN-γ), Beijing Biotech Inc.; positive control (protein, UniProt P01580 23-155, looked up)
Interferon gamma: HGTVIESLESLNNYFNSSGIDVEEKSLFLDIWRNWQKDGDMKILQSQIISFYLRLFEVLKDNQAISNNISVIESHLITTFFSNSKAKKDAFMSIAKFEVNNPQVQRQAFNELIRVVHQLLPESSLRKRKRSRC
Stimulation index (T lymphocyte; controls: rhIL-2, rmIFN-γ 3 × 10^5 IU/kg, cyclophosphamide 20 mg/kg): 1.27 ± 0.14 | Phagocytosis index (mononuclear phagocyte; [5]): 5.45 ± 0.71 | weight of spleen (spleen index), X ± SD (%) (spleen; [2]): 0.50 ± 0.04% | weight of spleen (spleen index), X ± SD (%) (spleen; [3]): 0.50 ± 0.04% | activity of T lymphocyte in secreting IFN, X ± SD (IU) (interferon (IFN)): 139 ± 16 IU and 125 ± 18 IU and 124 ± 16 IU | Survival days (L1210 leukemia; [5]): 15.6 ± 2.2 days
